Patent publication US11459308B2 (priority 2016, dated 2022)

What was measured:
[1] = system: rVSV-EBOV GP; test: microbe, parasite or virus in culture; type: cell-based, Zaire Ebolavirus; settings: for IC50: Zaire ebolavirus, read-out: rVSV-EBOV IC50
[2] = system: authentic EBOV (EBOV-Zaire 1995); test: microbe, parasite or virus in culture; type: cell-based, Ebola virus; settings: Zaire ebolavirus, Vero, 48 h, read-out: infectious EBOV-Z IC50
[3] = target: Adenosine A1 (Homo sapiens (Human), UniProt P30542); test: Eurofins/Panlabs receptor panel: Adenosine A1; type: binding; settings: Adenosine A1, Cat # 200510
[4] = target: Adenosine A2A (Homo sapiens (Human), UniProt P29274); test: Eurofins/Panlabs receptor panel: Adenosine A2A; type: binding; settings: Cat # 200610
[5] = target: Adrenergic α1A (Rattus norvegicus (Rat), UniProt P43140); test: Eurofins/Panlabs receptor panel: Adrenergic α1A; type: binding; settings: Cat # 203100
[6] = target: Adrenergic α1B (Rattus norvegicus (Rat), UniProt P15823); test: Eurofins/Panlabs receptor panel: Adrenergic α1B; type: binding; settings: Cat # 203200
[7] = target: Adrenergic α2A (Homo sapiens (Human), UniProt P08913); test: Eurofins/Panlabs receptor panel: Adrenergic α2A; type: binding; settings: Cat # 203630
[8] = target: Adrenergic β1 (Homo sapiens (Human), UniProt P08588); test: Eurofins/Panlabs receptor panel: Adrenergic β1; type: binding; settings: Adrenergic β1, Cat # 204010
[9] = target: Adrenergic β2 (Homo sapiens (Human), UniProt P07550); test: Eurofins/Panlabs receptor panel: Adrenergic β2; type: binding; settings: Adrenergic β2, Cat # 204110
[10] = system: Calcium Channel L-Type, Dihydropyridine; type: binding; settings: 10 μM
[11] = target: Cannabinoid CB1 (Homo sapiens (Human), UniProt P21554); test: Eurofins/Panlabs receptor panel: Cannabinoid CB1; type: binding; settings: Cannabinoid CB1, Cat # 217030
[12] = target: Dopamine D1 (Homo sapiens (Human), UniProt P21728); test: Eurofins/Panlabs receptor panel: Dopamine D1; type: binding; settings: Dopamine D1, Cat # 219500
[13] = target: Dopamine D2S (Homo sapiens (Human), UniProt P14416); test: Eurofins/Panlabs receptor panel: Dopamine D2S; type: binding; settings: Cat # 219700
Chain of Dopamine D2S (P14416 with tags, fused parts or gaps limits assumed): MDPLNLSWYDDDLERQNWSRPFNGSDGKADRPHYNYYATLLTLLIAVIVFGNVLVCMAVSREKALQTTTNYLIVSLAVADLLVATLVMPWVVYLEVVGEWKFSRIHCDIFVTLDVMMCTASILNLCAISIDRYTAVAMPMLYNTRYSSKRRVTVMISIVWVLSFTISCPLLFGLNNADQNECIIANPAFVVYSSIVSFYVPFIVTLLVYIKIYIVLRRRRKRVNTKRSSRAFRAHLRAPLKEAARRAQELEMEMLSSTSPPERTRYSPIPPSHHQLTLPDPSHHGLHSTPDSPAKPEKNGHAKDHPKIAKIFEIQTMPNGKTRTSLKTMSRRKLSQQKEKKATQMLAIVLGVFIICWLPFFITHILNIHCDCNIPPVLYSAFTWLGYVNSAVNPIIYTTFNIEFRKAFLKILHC

[14] = system: GABAA, Flunitrazepam, Central; type: binding; settings: 10 μM
[15] = system: GABAA, Muscimol, Central; type: binding; settings: 10 μM
[16] = system: Glutamate, NMDA, Phencyclidine; type: binding; settings: 10 μM
[17] = target: Histamine H1 (Homo sapiens (Human), UniProt P35367); test: Eurofins/Panlabs receptor panel: Histamine H1; type: binding; settings: Histamine H1, Cat # 239610
[18] = system: Imidazoline I2, Central; type: binding; settings: 10 μM
[19] = target: Muscarinic M2 (Homo sapiens (Human), UniProt P08172); test: Eurofins/Panlabs receptor panel: Muscarinic M2; type: binding; settings: Muscarinic M2, Cat # 252710
[20] = target: Muscarinic M3 (Homo sapiens (Human), UniProt P20309); test: Eurofins/Panlabs receptor panel: Muscarinic M3; type: binding; settings: Muscarinic M3, Cat # 252810
[21] = system: Nicotinic Acetylcholine; type: binding; settings: 10 μM
[22] = target: Nicotinic Acetylcholine α1, Bungarotoxin (Homo sapiens (Human), UniProt P02708+P07510+Q07001); test: biochemical; type: binding
[23] = target: Opiate μ(OP3, MOP) (Homo sapiens (Human), UniProt P35372); test: Eurofins/Panlabs receptor panel: Opiate μ(OP3, MOP); type: binding; settings: Cat # 260410
[24] = system: Phorbol Ester; type: binding; settings: 10 μM
[25] = system: Potassium Channel [KATP]; type: binding; settings: 10 μM
[26] = target: Prostanoid EP4 (Homo sapiens (Human), UniProt P35408); test: Eurofins/Panlabs receptor panel: Prostanoid EP4; type: binding; settings: Prostanoid EP4, Cat # 268420
[27] = system: Rolipram; type: binding; settings: 10 μM
[28] = target: Serotonin (5-Hydroxytryptamine) 5-HT2B (Homo sapiens (Human), UniProt P41595); test: Eurofins/Panlabs receptor panel: Serotonin 5-HT2B; type: binding; settings: Cat # 271700
[29] = target: Sigma σ1 (Homo sapiens (Human), UniProt Q99720); test: Eurofins/Panlabs receptor panel: Sigma σ1; type: binding; settings: Sigma σ1, Cat # 278110
[30] = system: Sodium Channel, Site 1; type: binding; settings: 10 μM
[31] = system: Sodium Channel, Site 2; type: binding; settings: 10 μM
[32] = target: Transporter, Norepinephrine (NET) (Homo sapiens (Human), UniProt P23975); test: Eurofins/Panlabs receptor panel: Transporter, Norepinephrine (NET); type: binding; settings: Cat # 204410
[33] = system: over 30 mammalian receptors and enzymes; settings: 10 μM
[34] = in vitro; settings: African green monkey
[35] = target: hERG potassium channel (Homo sapiens (Human), UniProt Q12809); test: in vitro
[36] = system: rVSV-SUDV GP; type: cell-based, Sudan Ebolavirus
[37] = system: rVSV-BDBV GP; type: cell-based, Bundybugyo Ebolavirus
[38] = female, BALB/c, mouse, in vivo, ip
[39] = in vivo; settings: mouse, ip
[40] = system: EBOV-GPCL/NPC1-C interaction; type: binding, human

Row | SMILES | IC50 [1] | IC50 [2] | inhibition at 10 µM [3] | inhibition at 10 µM [4] | inhibition at 10 µM [5] | inhibition at 10 µM [6] | inhibition at 10 µM [7] | inhibition at 10 µM [8] | inhibition at 10 µM [9] | % Inhib. [10] | inhibition at 10 µM [11] | inhibition at 10 µM [12] | inhibition at 10 µM [13] | % Inhib. [14] | % Inhib. [15] | % Inhib. [16] | inhibition at 10 µM [17] | % Inhib. [18] | inhibition at 10 µM [19] | CC50 [34] | also measured
1 | CC(C)(C)N1CCN(c2ccc3ncn(C(c4ccccc4)c4ccccc4)c3c2)CC1 [MBX 3673, 1-benzhydryl-6-(4-tert-butylpiperazin-1-yl)benzimidazole] | 1700 nM | 2500 nM | 9% | -3% | 76% | 36% | 34% | 3% | -3% | 28% | 39% | 12% | 4% | −6% | 5% | −1% | 41% | 35% | 24% | 77000 nM | inhibition at 10 µM [20]: 11%; % Inhib. [21]: 1%; inhibition at 10 µM [22]: 7%; inhibition at 10 µM [23]: 44%; % Inhib. [24]: −9%; % Inhib. [25]: −8%; inhibition at 10 µM [26]: 16%; % Inhib. [27]: 9%; inhibition at 10 µM [28]: 21%; inhibition at 10 µM [29]: 91%; % Inhib. [30]: 9%; % Inhib. [31]: 43%; inhibition at 10 µM [32]: 46%; inhibition of binding in Eurofins/Panlabs receptor panel (overall) [33]: favorable selectivity; inhibition at 10 µM [35]: 44%
2 | c1ccc(C(c2ccccc2)n2cnc3ccc(N4CCNCC4)cc32)cc1 [MBX 3587, 1-benzhydryl-6-(piperazin-1-yl)benzo[d]imidazole] | 1800 nM | 2200 nM | 12% | 3% | 43% | 37% | 82% | 69% | 96% | −29% | 20% | 11% | 30% | −1% | 21% | 8% | 84% | 29% | 18% | 37000 nM | inhibition of infection of Vero cells by rVSV-EBOV GP [1]: potent inhibitors; inhibition of infection of Vero cells by rVSV-SUDV GP [36]: potent inhibitors; inhibition of infection of Vero cells by rVSV-BDBV GP [37]: potent inhibitors; inhibition at 10 µM [20]: 50%; % Inhib. [21]: 32%; inhibition at 10 µM [22]: 5%; inhibition at 10 µM [23]: 28%; % Inhib. [24]: −5%; % Inhib. [25]: −4%; inhibition at 10 µM [26]: -1%; % Inhib. [27]: −6%; inhibition at 10 µM [28]: 74%; inhibition at 10 µM [29]: 46%; % Inhib. [31]: 72%; tolerated dose, 2 doses per day for 10 days [38]: up to 20 mg/Kg; well-tolerated single dose [38]: up to 100 mg/Kg; inhibition of binding in Eurofins/Panlabs receptor panel (overall) [33]: favorable selectivity; half-life [39]: 3.2 h; inhibition at 10 µM [35]: 55%
3 | O=[N+]([O-])c1ccc(N2CCN(Cc3ccoc3)CC2)cc1NC(c1ccccc1)c1ccccc1 [MBX 3574, 1-(benzhydrylamino)-5-[4-(furan-3-ylmethyl)piperazin-1-yl]-2-nitrobenzene] | 560 nM | 1200 nM |  |  |  |  |  |  |  |  |  |  |  |  |  |  |  |  |  | > 200000 nM | inhibition of infection of Vero cells by rVSV-EBOV GP [1]: potent inhibitors; inhibition of infection of Vero cells by rVSV-SUDV GP [36]: potent inhibitors; inhibition of infection of Vero cells by rVSV-BDBV GP [37]: potent inhibitors
4 | O=[N+]([O-])c1ccc(N2CCN(CCO)CC2)cc1NC(c1ccccc1)c1ccccc1 [MBX 3588, 1-(benzhydrylamino)-5-[4-(2-hydroxyethyl)piperazin-1-yl]-2-nitrobenzene] | 1400 nM | 730 nM |  |  |  |  |  |  |  |  |  |  |  |  |  |  |  |  |  | 21000 nM | inhibition of GPCL-NPC1-C AlphaLISA compared with biotin-streptavidin AlphaLISA [40]: much more potently; selectivity for inhibition of the EBOV-GPCL/NPC1-C interaction vs. the biotin-streptavidin interaction [40]: about 10 fold
5 | COCCN1CCN(c2ccc([N+](=O)[O-])c(NC(c3ccccc3)c3ccccc3)c2)CC1 [MBX 3591, 1-(benzhydrylamino)-5-[4-(2-methoxyethyl)piperazin-1-yl]-2-nitrobenzene] | 1600 nM | 1400 nM |  |  |  |  |  |  |  |  |  |  |  |  |  |  |  |  |  | > 100000 nM | 
